Consider one molecule from patent US20070178458A1, “Methods of diagnosis and prognosis of ovarian cancer II” (priority 2003, published 2007).

Molecules are shown by their SMILES.

In one test the test system is MGC1136 expression. Nature of the test: Change in MGC1136 expression after treatment with methylation inhibitor, quantitative RT-PCR. The test is classed as cell-based, human. The following applies: 1 μM for 72 hours, adjusted for GAPDH. Here is the method:
(§1) FIG. 5 is a graphical representation showing the change In expression of KIAA1983 in epithelial ovarian cancer cell lines following treatment with the methyl transferase inhibitor 5-AZA (1 μM) for 72 hours, as determined by quantitative RT-PCR. The non-transformed cell line HOSE 6-3 was used as a control. Ovarian cancer cell lines were IGROV1, TOV21 G, OV90 and CAOV3. The relative amount of KIAA1983 mRNA in each cell line before (filled) and after (unfilled) treatment with methylation inhibitor was determined by comparison to a standard housekeeping gene (GAPDH), and is expressed as a fold change in expression level following treatment.
FIG. 9 is a graphical representation showing MGC1136 expression in IGROV, TOV21G and CaOV3 cells, in the presence (+) or absence (−) of the methylation inhibitor 5AZA (1 μM 5AZA for 72 hours). MGC1136 expression is represented as a relative fold change in expression in each cell line following treatment with 5AZA, and adjusted for the level of the housekeeping gene GAPDH. Experiments were performed as described in the legend for FIG. 5.
However, expression of MGC1136 is not increased in TOV21 G cells (clear cell ovarian cancer) following treatment with the methylation inhibitor 5AZA. Thus, loss of MGC1136 expression by methylation of the MGC1136 promoter may be restricted to particular histological phenotypes of epithelial ovarian cancer.

For the next test, the system named is KIAA1983 mRNA expression. Nature of the test: Change in KIAA1983 expression after treatment with methyl transferase inhibitor, quantitative RT-PCR. The following applies: 1 μM for 72 hours, relative to GAPDH. It is filed as cell-based, human. Here is the method: as §1
Total RNA was isolated from the normal and tumour cell lines, reverse transcribed into cDNA and used as template in a quantitative PCR using a LightCycler system (Roche Diagnostics). The relative amount of each gene product was determined by comparison to a standard housekeeping gene (GAPDH).
Thus, KIAA1983 is susceptible to gene silencing by hypermethylation thereby contributing to its reduced expression in epithelial ovarian cancers.

In the case of `Nc1ncn([C@H]2C[C@H](O)[C@@H](CO)O2)c(=O)n1` [5-AZA, 5-aza-2′deoxycytodine], the “expression of MGC1136 following treatment” value in the test on MGC1136 expression (CaOV3 cell line (serous epithelial ovarian cancer)) was “marked increase in expression of MGC1136”; in the test on MGC1136 expression (IGROV cell line (serous epithelial ovarian cancer)), “marked increase in expression of MGC1136”; in the test on MGC1136 expression (TOV21 G cells (clear cell ovarian cancer)), “not increased”. Besides, in the test on KIAA1983 mRNA expression (epithelial ovarian cancer cell lines having reduced expression of KIAA1983 (IGROV1, TOV21G, OV90, CAOV3)), the “expression of KIAA1983 mRNA following treatment” value was “removes the block in expression of KIAA1983 mRNA”. Moreover, the “expression of KIAA1983 following treatment” value in the test on KIAA1983 mRNA expression (normal ovarian cells (non-transformed HOSE 6-3 control)) is “note modulated”.
